According to publication PMC4575030 (PLoS ONE, 2015):
“And” between values parts separate entries of the source, which are not always exact repeats. Equal entries are not always repeated. Where two headings read alike, the source gives them in different places.

What was measured:
hNav1.7 = biological target: T1, hNav1.7 (Homo sapiens, UniProt Q15858); assay: Manual whole cell patch clamp electrophysiology on HEK 293 cells stably expressing hNav1.7; type: cell-based
T1 construct: expressed in transfected cells; host or cells: HEK 293
Description: Except as indicated, recordings to determine potency of aminotriazines on Nav1.7 were made with manual electrophysiology. HEK 293 cells stably expressing hNav1.7 were voltage-clamped using the whole cell patch clamp configuration. Cells were plated onto 35 mm culture dishes 0–24 hours before recording, and tissue culture medium was exchanged for external solution containing (in mM) 140 NaCl, 5 KCl, 2 CaCl2, 1 MgCl2, 10 HEPES, 11 glucose, pH 7.4 with NaOH. Patch pipettes were pulled from borosilicate glass capillaries (1.2 mm outer diameter, World Precision Instruments, Sarasota, FL) with a P-97 pipette puller (Sutter Instruments, Novato, CA) and backfilled with internal solution containing (in mM) 62.5 CsCl, 75 CsF, 2.5 MgCl2, 5 EGTA, 10 HEPES, pH 7.25 with CsOH. Pipette resistances were between 1.5 and 2.0 MΩ. After formation of the whole-cell configuration, cells were lifted off the dish bottom with the patch pipette and positioned directly in front of a microarray of glass tubes (each tube internal diameter ~ 1 mm) with each tube containing continuously flowing control or test solution. A full current-voltage relation was recorded from each cell, and cells with poor space clamp as indicated by discontinuous I-V relation or by prolonged or nonexponential current kinetics were discarded. Solution switching was accomplished by moving the microarray with computer control via an RSC-160 rapid solution exchanger (Bio-Logic, Claix, France). Currents were recorded with an Axopatch 200B patch-clamp amplifier driven by pCLAMP software, filtered (4-pole Bessel) at 5 kHz during acquisition, and digitized at 20 kHz using pClamp9.2. Whole cell capacitance and series resistance were compensated at 0%- 80%, and reported voltages were uncorrected for liquid junction potentials. Recordings were made at room temperature. Concentration-response curves were taken by measuring inward Nav1.7 current every five to six seconds with a 10 ms to 20 ms depolarization to near the peak of the current-voltage relation, before and after steady-state inhibition by a given concentration of aminotriazine. For concentration response curves on partially inactivated channels, holding voltage was set to produce 20% fractional inactivation. […] Occasionally two compound concentrations were tested in parallel without resetting the voltage, if inhibition was rapid and the current level steady. […] Concentration response curves on non-inactivated channels generally were taken with multiple concentrations added in series without washoff of the previous concentration.

naïve rats = assay: Open field activity (basic movement); type: in vivo, rat; conditions: formalin-naïve rats
Description: Basic movement was measured using the Photobeam Activity System Open Field (San Diego Instruments, San Diego, CA) equipped with 48 infrared photocell emitters and detectors. Photobeams used to measure vertical movement were positioned 14 cm above the test chamber floor. Each testing chamber was made of Plexiglas (41 x 41 x 36 cm) and was devoid of any bedding. At the beginning of the test session, each animal was placed in a separate testing chamber and the room lights were turned off. Basic movement was measured for 30 minutes.

[1] = Terminal plasma and brain concentrations after behavioral testing; type: in vivo, rat; conditions: for Kp: brain and plasma, ratio of concentrations measured following the formalin test; for concentration at 160 min / Terminal plasma concentration: mean; for concentration at 160 min: n = 4; for Terminal plasma concentration: n = 8; for Effective [plasma]: mean terminal plasma concentration at the lowest effective dose in the rat formalin test
[2] = In vitro plasma protein binding; type: in vitro ADME
rat Nav1.7 = rat Nav1.7 (Rattus norvegicus, UniProt O08562); assay: PatchXpress automated electrophysiology on rat Nav1.7; type: cell-based; conditions: 20%-inactivated rat Nav1.7
[3] = test system: rat formalin model of pain; assay: Formalin test (formalin-induced flinching); type: in vivo; conditions: for Decrease in formalin flinching: phase 2 (10 to 40 min), percent of vehicle; for Analgesic efficacy: rat formalin model, significant (p < 0.05) decrease in flinching at a dose without a reduction in open field movement that obviated the result; for Reduction in formalin flinching, result in words: rat formalin test
Description: Formalin-induced flinching was measured using the Automated Nociception Analyzer (ANA) (University Anesthesia Research & Development Group, La Jolla, CA). Rats were habituated to the ANA testing chambers for at least 30 minutes prior to the formalin injection. At test time, each rat was removed from the testing chamber and gently wrapped in a towel. 50 μL of 2.5% formalin solution was injected into the dorsal surface of the left hind paw with a 30 gauge needle. A small metal band was then affixed to the plantar side of the injected paw with one drop of super glue. The animal was then unwrapped from the towel, placed back in the testing chamber, and flinching behavior was scored for 40 minutes by the ANA software. While minimized, non-painful paw movement from the natural activity of an alert animal could be erroneously binned by the automated recording system as a nociceptive behavior. These behaviors are not subtracted from the flinching total. […] Total flinching behavior was used as the endpoint of the assay.

[4] = IC50 (μM) 20%-inactivated, 20%-inactivated human Nav1.7, holding voltage set to produce 20% fractional inactivation
[5] = non-inactivated human Nav1.7, holding voltage -140 mV or occasionally -120 mV, peak concentration tested 10 μM, read-out: IC50 (μM) Non-inactivated
[6] = 10 mg/kg p.o., negative value = increase
[7] = 30 mg/kg p.o., listed as compound A
[8] = 60 mg/kg p.o., listed as compound A

Chain of rat Nav1.7 (O08562 whole entry): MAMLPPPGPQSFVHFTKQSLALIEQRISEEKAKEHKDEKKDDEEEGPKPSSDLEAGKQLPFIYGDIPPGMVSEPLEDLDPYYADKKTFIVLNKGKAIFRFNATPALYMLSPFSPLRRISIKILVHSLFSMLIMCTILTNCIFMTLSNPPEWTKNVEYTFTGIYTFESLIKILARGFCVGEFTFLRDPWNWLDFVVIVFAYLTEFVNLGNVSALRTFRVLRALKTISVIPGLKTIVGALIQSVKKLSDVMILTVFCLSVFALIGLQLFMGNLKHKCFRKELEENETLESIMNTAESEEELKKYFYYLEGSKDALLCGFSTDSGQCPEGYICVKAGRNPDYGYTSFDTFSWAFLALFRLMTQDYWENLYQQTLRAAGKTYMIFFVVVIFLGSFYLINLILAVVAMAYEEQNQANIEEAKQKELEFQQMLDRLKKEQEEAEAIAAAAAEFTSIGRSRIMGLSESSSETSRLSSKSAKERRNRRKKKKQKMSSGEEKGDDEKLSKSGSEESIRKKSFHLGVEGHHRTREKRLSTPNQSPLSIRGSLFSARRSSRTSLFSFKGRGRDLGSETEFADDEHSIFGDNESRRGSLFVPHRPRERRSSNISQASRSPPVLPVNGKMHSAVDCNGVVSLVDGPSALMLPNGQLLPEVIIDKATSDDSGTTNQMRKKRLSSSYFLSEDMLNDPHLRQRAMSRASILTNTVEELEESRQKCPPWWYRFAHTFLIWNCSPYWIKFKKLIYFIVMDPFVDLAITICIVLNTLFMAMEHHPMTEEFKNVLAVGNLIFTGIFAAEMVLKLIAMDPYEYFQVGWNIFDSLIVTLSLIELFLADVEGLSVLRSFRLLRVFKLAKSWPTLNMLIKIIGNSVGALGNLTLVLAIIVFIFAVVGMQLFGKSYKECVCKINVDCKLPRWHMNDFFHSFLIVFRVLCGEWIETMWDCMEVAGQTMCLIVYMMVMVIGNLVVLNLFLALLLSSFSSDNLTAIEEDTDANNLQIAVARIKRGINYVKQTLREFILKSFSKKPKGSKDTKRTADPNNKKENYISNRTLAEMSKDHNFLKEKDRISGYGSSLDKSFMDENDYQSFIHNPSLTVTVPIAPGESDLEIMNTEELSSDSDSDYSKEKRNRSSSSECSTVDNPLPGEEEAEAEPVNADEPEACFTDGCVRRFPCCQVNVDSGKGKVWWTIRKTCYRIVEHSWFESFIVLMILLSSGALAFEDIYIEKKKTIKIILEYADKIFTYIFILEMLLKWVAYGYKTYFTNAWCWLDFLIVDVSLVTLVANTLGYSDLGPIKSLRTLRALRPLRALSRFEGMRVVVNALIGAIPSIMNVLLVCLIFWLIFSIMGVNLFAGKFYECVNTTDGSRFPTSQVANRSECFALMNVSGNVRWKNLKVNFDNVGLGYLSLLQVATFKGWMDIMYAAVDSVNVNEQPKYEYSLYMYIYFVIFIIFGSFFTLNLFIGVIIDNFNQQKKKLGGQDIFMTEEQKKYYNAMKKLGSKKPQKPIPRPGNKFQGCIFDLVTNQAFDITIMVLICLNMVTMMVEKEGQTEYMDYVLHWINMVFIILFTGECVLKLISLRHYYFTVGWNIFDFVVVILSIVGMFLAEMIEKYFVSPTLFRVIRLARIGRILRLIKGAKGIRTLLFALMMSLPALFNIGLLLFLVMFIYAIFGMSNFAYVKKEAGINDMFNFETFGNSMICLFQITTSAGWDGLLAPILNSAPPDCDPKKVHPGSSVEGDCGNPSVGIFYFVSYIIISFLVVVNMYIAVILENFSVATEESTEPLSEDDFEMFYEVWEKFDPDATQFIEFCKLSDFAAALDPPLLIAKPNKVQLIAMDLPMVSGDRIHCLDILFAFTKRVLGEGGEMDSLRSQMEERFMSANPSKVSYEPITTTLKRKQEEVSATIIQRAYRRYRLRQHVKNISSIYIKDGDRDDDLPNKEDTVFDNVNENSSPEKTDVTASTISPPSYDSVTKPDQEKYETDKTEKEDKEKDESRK
T1 sequence (Q15858 whole entry): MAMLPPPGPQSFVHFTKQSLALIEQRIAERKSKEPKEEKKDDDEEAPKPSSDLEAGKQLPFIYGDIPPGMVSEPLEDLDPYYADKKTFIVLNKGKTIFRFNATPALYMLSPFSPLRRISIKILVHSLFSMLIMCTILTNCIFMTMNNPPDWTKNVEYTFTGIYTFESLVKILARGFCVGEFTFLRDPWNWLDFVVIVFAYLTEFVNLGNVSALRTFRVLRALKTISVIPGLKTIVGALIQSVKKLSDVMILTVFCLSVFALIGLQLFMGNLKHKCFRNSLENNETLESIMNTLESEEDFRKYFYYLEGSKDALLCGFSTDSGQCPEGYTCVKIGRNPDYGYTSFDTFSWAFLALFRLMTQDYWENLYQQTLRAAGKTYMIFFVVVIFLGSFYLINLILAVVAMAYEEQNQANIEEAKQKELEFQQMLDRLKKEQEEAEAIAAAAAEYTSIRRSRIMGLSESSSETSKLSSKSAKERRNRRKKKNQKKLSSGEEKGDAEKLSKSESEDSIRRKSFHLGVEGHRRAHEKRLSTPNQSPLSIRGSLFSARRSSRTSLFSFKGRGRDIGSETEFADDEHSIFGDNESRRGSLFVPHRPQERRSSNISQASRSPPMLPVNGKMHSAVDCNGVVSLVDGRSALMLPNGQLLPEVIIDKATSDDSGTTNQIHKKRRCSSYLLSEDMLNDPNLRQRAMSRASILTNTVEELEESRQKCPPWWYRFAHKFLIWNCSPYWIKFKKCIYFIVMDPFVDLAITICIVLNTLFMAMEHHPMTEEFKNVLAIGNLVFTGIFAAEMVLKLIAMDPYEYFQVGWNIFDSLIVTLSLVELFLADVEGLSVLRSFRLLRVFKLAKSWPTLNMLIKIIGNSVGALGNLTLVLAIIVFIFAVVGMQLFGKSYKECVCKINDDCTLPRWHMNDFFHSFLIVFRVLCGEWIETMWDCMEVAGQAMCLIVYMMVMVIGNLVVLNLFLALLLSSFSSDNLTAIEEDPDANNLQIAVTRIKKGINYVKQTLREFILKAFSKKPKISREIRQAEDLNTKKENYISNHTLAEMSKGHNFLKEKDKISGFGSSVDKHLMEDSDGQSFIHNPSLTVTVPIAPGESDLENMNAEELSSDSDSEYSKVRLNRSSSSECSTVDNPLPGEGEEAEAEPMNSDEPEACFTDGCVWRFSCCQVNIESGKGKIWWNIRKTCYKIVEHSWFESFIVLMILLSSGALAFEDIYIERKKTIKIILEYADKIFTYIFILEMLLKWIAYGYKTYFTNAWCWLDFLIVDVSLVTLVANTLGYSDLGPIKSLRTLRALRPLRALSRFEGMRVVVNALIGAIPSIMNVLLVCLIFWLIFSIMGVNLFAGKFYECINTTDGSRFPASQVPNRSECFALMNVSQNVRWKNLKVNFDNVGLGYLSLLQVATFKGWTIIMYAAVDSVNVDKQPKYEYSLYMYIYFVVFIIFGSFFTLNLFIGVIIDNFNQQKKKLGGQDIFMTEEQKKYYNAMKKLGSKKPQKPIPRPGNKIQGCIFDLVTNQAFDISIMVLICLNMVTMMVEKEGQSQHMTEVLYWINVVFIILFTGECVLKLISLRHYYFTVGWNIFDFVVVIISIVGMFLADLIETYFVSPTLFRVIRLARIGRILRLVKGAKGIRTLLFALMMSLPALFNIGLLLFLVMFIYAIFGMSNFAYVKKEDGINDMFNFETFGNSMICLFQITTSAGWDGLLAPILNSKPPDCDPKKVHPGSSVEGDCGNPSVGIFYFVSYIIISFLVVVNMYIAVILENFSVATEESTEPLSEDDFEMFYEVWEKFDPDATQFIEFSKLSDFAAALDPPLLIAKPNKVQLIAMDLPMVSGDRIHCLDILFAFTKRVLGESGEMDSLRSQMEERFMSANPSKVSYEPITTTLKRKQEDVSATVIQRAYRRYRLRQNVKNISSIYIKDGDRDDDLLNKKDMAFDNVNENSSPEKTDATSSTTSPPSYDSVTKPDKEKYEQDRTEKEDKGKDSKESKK

Row | Structure (SMILES) | IC50 (hNav1.7; [4]) | IC50 (hNav1.7; [5]) | Decrease in basic movement (naïve rats; [6]) | Decrease in basic movement (naïve rats; 30 mg/kg p.o.) | Decrease in basic movement (naïve rats; 60 mg/kg p.o.) | Kp ([1]; rat) | Effective [plasma] [1] | fraction unbound [2] | IC50 (rat Nav1.7) | Decrease in formalin flinching ([3]; 10 mg/kg p.o.) | Decrease in formalin flinching ([3]; 30 mg/kg p.o.) | Decrease in formalin flinching ([3]; 60 mg/kg p.o.) | Analgesic efficacy [3] | Reduction in formalin flinching, result in words [3] | further results
1 | CC(=O)Nc1cccc(Nc2ncnc(N3CCC(Oc4ccc(Cl)cc4)CC3)n2)c1C [Compound A, N-(3-((4-(4-(4-chlorophenoxy)-1-piperidinyl)-1,3,5-triazin-2-yl)amino)-2-methylphenyl)acetamide] | 0.19 µM | > 10 µM | -4.2% | 13.5% and 14% | 46% | 0.1 | 3.02 µM | 0.013 | 520 nM | 31.4% and 32% | 66.1% and 66% | 85% | Yes |  | Decrease in basic movement (naïve rats; [7]): 14%; Decrease in basic movement (naïve rats; [8]): 46%; concentration at 160 min ([1]; formalin test, 10 mg/kg p.o.): 280 nM; Terminal plasma concentration ([1]; formalin test, 10 mg/kg p.o.): 3.02 µM; concentration at 160 min ([1]; formalin test, 30 mg/kg p.o.): 880 nM; Terminal plasma concentration ([1]; formalin test, 30 mg/kg p.o.): 8.07 µM; Terminal plasma concentration ([1]; formalin test, 60 mg/kg p.o.): 13.5 µM; Terminal plasma concentration ([1]; open field test, 10 mg/kg p.o.): 2.75 µM; Terminal plasma concentration ([1]; open field test, 30 mg/kg p.o.): 5.53 µM; Terminal plasma concentration ([1]; open field test, 60 mg/kg p.o.): 13.0 µM; concentration at 160 min ([1]; rat, brain, po, formalin test, 60 mg/kg p.o.): 1540 nM; Decrease in formalin flinching ([3]; 10 mg/kg p.o., listed as compound A): 32%; Decrease in formalin flinching [3, 7]: 66%; Decrease in formalin flinching [3, 8]: 85% and 84.6%
2 | CC(=O)Nc1cccc(Nc2ncnc(N3CCC(Oc4ccc(Cl)c(C)c4)CC3)n2)c1C [Compound B, N-(3-((4-(4-(4-chloro-3-methylphenoxy)-1-piperidinyl)-1,3,5-triazin-2-yl)amino)-2-methylphenyl)acetamide] | 0.5 µM | > 10 µM |  | 5.6% | 19% |  | 8.75 µM | 0.006 | 3500 nM | 17% | 30% | 39% | Yes | statistically significant and plasma concentration-dependent reduction in formalin flinching | 
3 | CC(=O)Nc1cccc(Nc2ncnc(N3CC(Oc4ccc(F)cc4)C3)n2)c1C [Compound C, N-(3-((4-(3-(4-fluorophenoxy)-1-azetidinyl)-1,3,5-triazin-2-yl)amino)-2-methylphenyl)acetamide] | 1.3 µM | > 10 µM | 8.5% | 23% |  | 0.03 | 3.68 µM | 0.164 | 4900 nM | 35% | 53% |  | Yes | statistically significant and plasma concentration-dependent reduction in formalin flinching | Decrease in basic movement (naïve rats; 3 mg/kg p.o.): 6.8%; Decrease in formalin flinching ([3]; 3 mg/kg p.o.): 14%
4 | CC(=O)Nc1cccc(Nc2ncnc(N3CCC(OCc4ccc(F)c(F)c4)CC3)n2)c1C [Compound D, N-(3-((4-(4-((3,4-difluorobenzyl)oxy)-1-piperidinyl)-1,3,5-triazin-2-yl)amino)-2-methylphenyl)acetamide] | 0.6 µM | > 10 µM |  | 28% | 50% | 0.19 | 1.27 µM | 0.067 | 1700 nM | 36% | 62% | 83% | Yes | statistically significant and plasma concentration-dependent reduction in formalin flinching | Increase in basic movement (in parentheses in the column Decrease in basic movement) (naïve rats; 10 mg/kg p.o., value in parentheses corresponds to a measured increase): (1.4%)
5 | CC(=O)Nc1cc(Nc2ncnc(N3CC=C(c4ccc(C#N)cc4)CC3)n2)ccc1F [Compound E, N-(5-((4-(4-(4-cyanophenyl)-3,6-dihydro-1(2H)-pyridinyl)-1,3,5-triazin-2-yl)amino)-2-fluorophenyl)acetamide] | 0.09 µM | 2.1 µM | 2% | 29% |  | 0.49 | 6.14 µM | 0.009 | 3500 nM | 18% | 62% |  | Yes | statistically significant and plasma concentration-dependent reduction in formalin flinching | Decrease in basic movement (naïve rats; 100 mg/kg p.o.): 29%; Decrease in formalin flinching ([3]; 100 mg/kg p.o.): 83%
6 | CC(=O)Nc1cccc(Nc2ncnc(N3CCC(Oc4ccc(Cl)c(F)c4)CC3)n2)c1C [Compound G, N-(3-((4-(4-(4-chloro-3-fluorophenoxy)-1-piperidinyl)-1,3,5-triazin-2-yl)amino)-2-methylphenyl)acetamide] | 0.3 µM | 6.6 µM |  |  |  | 0.09 |  | 0.006 | 800 nM |  |  |  | No | did not achieve statistically significant reversals in formalin flinching | 
7 | CC(=O)Nc1cccc(Nc2ncnc(N3CCC(OCc4ccccc4)CC3)n2)c1 [Compound H, N-(3-((4-(4-(benzyloxy)-1-piperidinyl)-1,3,5-triazin-2-yl)amino)phenyl)acetamide] |  |  |  |  |  |  |  |  |  |  |  |  | No | did not achieve statistically significant reversals in formalin flinching | 
8 | CN1C(=O)CN=C(c2ccccc2)c2cc(Cl)ccc21 [Diazepam, diazepam, reference compound] |  |  |  |  |  |  |  |  |  |  |  |  |  |  | Reduction in formalin-induced flinching ([3]; diazepam 10 mg/kg, lowest dose with statistically significant reduction): 22%
